Assay [1] has as its target T1, PAR2 (HT-29 cells, trypsin activation) (Homo sapiens, UniProt P55085).
T1 construct: host or cells: HT-29 cells
T1 sequence (P55085 26-397): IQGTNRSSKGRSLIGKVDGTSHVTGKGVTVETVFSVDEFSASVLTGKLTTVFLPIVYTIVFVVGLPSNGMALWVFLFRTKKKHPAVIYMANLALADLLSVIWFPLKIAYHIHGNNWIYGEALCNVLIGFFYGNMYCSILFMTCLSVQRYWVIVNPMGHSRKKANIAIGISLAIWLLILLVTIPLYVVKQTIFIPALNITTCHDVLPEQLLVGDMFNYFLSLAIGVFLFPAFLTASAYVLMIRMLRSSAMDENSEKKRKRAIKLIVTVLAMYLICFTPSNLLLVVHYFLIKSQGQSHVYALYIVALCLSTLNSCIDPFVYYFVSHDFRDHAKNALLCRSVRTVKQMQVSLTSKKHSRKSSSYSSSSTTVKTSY
The assay is described as follows: Ca FLIPR TETRA assay, ANTAGONIST mode, stimulation with 3.1 U/mL trypsin. To be noted: HT-29 cells, antagonist mode, stimulation with 3.1 U/mL trypsin. It is filed as cell-based. Put shortly: (§1)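 Intracellular calcium is measured by fluorescence in HT-29 cells loaded with calcium 5 reagent. Compounds sit on the cells 30 min at room temperature before challenge with trypsin (3.1 U/mL) or SLIGKV (8 μM) for PAR2, or with thrombin (1 U/mL) or UTP (0.6 μM) as counter-stimuli.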

In assay [2] the test system is UTP-stimulated Ca2+ response in HT-29 cells. The experiment in a line: Ca FLIPR TETRA assay, ANTAGONIST mode, stimulation with 0.6 μM UTP. It is filed as cell-based, human. The following applies: Homo sapiens; HT-29 cells, antagonist mode, stimulation with 0.6 μM UTP. Put shortly: as §1
The subject of assay [3] is Thrombin-stimulated Ca2+ response in HT-29 cells. The experiment in a line: Ca FLIPR TETRA assay, ANTAGONIST mode, stimulation with 1 U/mL Thrombin. In kind it is cell-based, human. To be noted: Homo sapiens; HT-29 cells, antagonist mode, stimulation with 1 U/mL Thrombin. The method, boiled down:
as §1

The target in assay [4] is T2, PAR2 (HT-29 cells, SLIGKV activation) (Homo sapiens, UniProt P55085).
T2 construct: host or cells: HT-29 cells
T2 sequence (P55085 26-397): T1 sequence (P55085 26-397)
The assay is described as follows: Ca FLIPR TETRA assay, ANTAGONIST mode, stimulation with 8 μM SLIGKV. It is filed as cell-based. To be noted: HT-29 cells, antagonist mode, stimulation with 8 μM SLIGKV. The method, boiled down:
as §1

As a reminder, the IC50 is the concentration needed to halve the response being measured. On to `CC(C)c1cc(-c2ccc(C(F)(F)F)cc2)nn2cc(C(=O)N3CCN(C(=O)c4cccnn4)CC3(C)C)nc12` [Compound I-282], for which the IC50 is 14.2 nM in assay [1], above 1000 nM in assay [2], above 1000 nM in assay [3] and 16 nM in assay [4].
As to `CC(C)(C)c1cc(-c2ccc(F)cc2)nn2cc(C(=O)N3CCN(C(=O)c4ccccn4)CC3(C)C)nc12` [Compound I-284], the IC50 in assay [1] is 1.4 nM; in assay [2], above 1000 nM; in assay [3], above 1000 nM; in assay [4], 1 nM.
For `CC(C)(C)c1cc(-c2ccc(F)cc2)nn2cc(C(=O)N3CCN(C(=O)c4ncccn4)CC3(C)C)nc12` [Compound I-285], the IC50 in assay [1] was 2.6 nM; in assay [2], above 1000 nM; in assay [3], 650 nM; in assay [4] it was 1.8 nM.
On to `CC(C)(C)c1cc(-c2ccc(F)cc2)nn2cc(C(=O)N3CCN(C(=O)c4ccncc4)CC3(C)C)nc12` [Compound I-286], for which the IC50 is 3.9 nM in assay [1], above 1000 nM in assay [2], 840 nM in assay [3] and 2.7 nM in assay [4].
Regarding `CC(C)(C)c1cc(-c2ccc(F)cc2)nn2cc(C(=O)N3CCN(C(=O)c4cccnc4)CC3(C)C)nc12` [Compound I-287], the IC50 came out at 2.8 nM in assay [1], 980 nM in assay [2], 630 nM in assay [3] and 2 nM in assay [4].
For `CC(C)(O)CC(=O)N1CCN(C(=O)c2cn3nc(-c4ccc(F)cc4)cc(C(C)(C)C)c3n2)C(C)(C)C1` [Compound I-289], the IC50 came out at 2.5 nM in assay [1], 540 nM in assay [2], 430 nM in assay [3] and 1.5 nM in assay [4].
For `Cc1cn[nH]c1C(=O)N1CCN(C(=O)c2cn3nc(-c4ccc(F)cc4)cc(C(C)(C)C)c3n2)C(C)(C)C1` [Compound I-290], the IC50 came out at 3.1 nM in assay [1], 730 nM in assay [2], 530 nM in assay [3] and 3.4 nM in assay [4].
Regarding `Cc1n[nH]cc1C(=O)N1CCN(C(=O)c2cn3nc(-c4ccc(F)cc4)cc(C(C)(C)C)c3n2)C(C)(C)C1` [Compound I-292], the IC50 in assay [1] was 2.2 nM; in assay [2], above 1000 nM; in assay [3] it was above 1000 nM; in assay [4], 2.4 nM.
Turning to `CC(C)c1cc(-c2ccc(C(F)F)cc2)nn2cc(C(=O)N3CCN(C(=O)c4ccn[nH]4)CC3(C)C)nc12` [Compound I-293], the IC50 in assay [1] is 9.4 nM; in assay [2], above 1000 nM; in assay [3], above 1000 nM; in assay [4] it was 6.6 nM.
Regarding `CC(C)c1cc(-c2ccc(C(F)F)cc2)nn2cc(C(=O)N3CCN(C(=O)c4nc[nH]n4)CC3(C)C)nc12` [Compound I-294], the IC50 in assay [1] is 13.7 nM; in assay [2], above 1000 nM; in assay [3], above 1000 nM; in assay [4], 8.8 nM.
Take `CC(C)c1cc(-c2ccc(C(F)F)cc2)nn2cc(C(=O)N3CCN(C(=O)c4cn[nH]c4)CC3(C)C)nc12` [Compound I-295]: the IC50 in assay [1] is 8.3 nM; in assay [2] it was above 1000 nM; in assay [3], above 1000 nM; in assay [4], 7.5 nM.
As to `CC(C)(C)c1cc(-c2ccc(F)cc2)nn2cc(C(=O)N3CCN(C(=O)c4nnn[nH]4)CC3(C)C)nc12` [Compound I-296], the IC50 in assay [1] was 44.7 nM; in assay [2] it was above 1000 nM; in assay [3], above 1000 nM; in assay [4], 32 nM.
As to `CC(C)(C)c1cc(-c2ccc(F)cc2)nn2cc(C(=O)N3CCN(C4(CO)CC4)C(=O)C3(C)C)nc12` [Compound I-297], the IC50 in assay [1] is 12.7 nM; in assay [2], above 1000 nM; in assay [3], 300 nM; in assay [4], 9.1 nM.
As to `Cc1ccc(-c2cc(C(C)(C)C)c3nc(C(=O)N4CCNC(=O)C4(C)C)cn3n2)cc1F` [Compound I-298], the 50% inhibitory concentration (IC50) in assay [1] was 1.8 nM; in assay [2], above 1000 nM; in assay [3], above 1000 nM; in assay [4] it was 2.3 nM.
Turning to `Cc1nnc(C(=O)N2CCN(C(=O)c3cn4nc(-c5ccc(C(F)F)cc5)cc(C(C)C)c4n3)C(C)(C)C2)o1` [Compound I-299], the IC50 in assay [1] is 53 nM; in assay [2], above 1000 nM; in assay [3], above 1000 nM; in assay [4] it was 37.3 nM.
In the case of `CC(C)c1cc(-c2ccc(C(F)F)cc2)nn2cc(C(=O)N3CCNC(=O)C3(C)C)nc12` [Compound I-300], the IC50 was 26.5 nM in assay [1], above 1000 nM in assay [2], above 1000 nM in assay [3] and 27.7 nM in assay [4].
`Cc1ccc(-c2cc(C(C)C)c3nc(C(=O)N4CCNC(=O)C4(C)C)cn3n2)cc1F` [Compound I-301]: the IC50 was 3 nM in assay [1], above 1000 nM in assay [2], above 1000 nM in assay [3] and 3 nM in assay [4].
For `Cc1c[nH]nc1C(=O)N1CCN(C(=O)c2cn3nc(-c4ccc(F)cc4)cc(C(C)C)c3n2)C(C)(C)C1` [Compound I-302], the IC50 in assay [1] was determined as 13 nM; in assay [2] it was 900 nM; in assay [3], 1100 nM; in assay [4], 10.3 nM.
With `Cc1n[nH]cc1C(=O)N1CCN(C(=O)c2cn3nc(-c4ccc(F)cc4)cc(C(C)C)c3n2)C(C)(C)C1` [Compound I-304], the IC50 in assay [1] was 54.3 nM; in assay [2], above 1000 nM; in assay [3] it was above 1000 nM; in assay [4], 40.3 nM.
With `CC(C)c1cc(-c2ccc(F)cc2)nn2cc(C(=O)N3CCN(C(=O)CC(C)(C)O)CC3(C)C)nc12` [Compound I-305], the half-inhibitory concentration (IC50) was 45 nM in assay [1], above 1000 nM in assay [2], above 1000 nM in assay [3] and 33 nM in assay [4].
Consider `CC(C)c1cc(-c2ccc(F)cc2)nn2cc(C(=O)N3CCN(C(=O)c4ccnnc4)CC3(C)C)nc12` [Compound I-306], for which the IC50 is 185 nM in assay [1], above 1000 nM in assay [2], above 1000 nM in assay [3] and 68 nM in assay [4].
Take `CC(C)c1cc(-c2ccc(F)cc2)nn2cc(C(=O)N3CCN(C(=O)c4cccnn4)CC3(C)C)nc12` [Compound I-307]: the IC50 in assay [1] was 42 nM; in assay [2], above 1000 nM; in assay [3], above 1000 nM; in assay [4], 52.8 nM.
Consider `CC(C)c1cc(-c2ccc(F)cc2)nn2cc(C(=O)N3CCN(C(=O)c4ccncc4)CC3(C)C)nc12` [Compound I-308], for which the IC50 in assay [1] is 33.5 nM; in assay [2], above 1000 nM; in assay [3], above 1000 nM; in assay [4], 28 nM.
Regarding `CC(C)c1cc(-c2ccc(F)cc2)nn2cc(C(=O)N3CCN(C(=O)c4cccnc4)CC3(C)C)nc12` [Compound I-309], the IC50 is 19 nM in assay [1], above 1000 nM in assay [2], above 1000 nM in assay [3] and 17.5 nM in assay [4].
Turning to `Cc1nc[nH]c1C(=O)N1CCN(C(=O)c2cn3nc(-c4ccc(F)cc4)cc(C(C)(C)C)c3n2)C(C)(C)C1` [Compound I-311], the IC50 in assay [1] was 4.1 nM; in assay [2], above 1000 nM; in assay [3] it was above 1000 nM; in assay [4], 6.8 nM.
For the compound `Cc1ncc(C(=O)N2CCN(C(=O)c3cn4nc(-c5ccc(F)cc5)cc(C(C)(C)C)c4n3)C(C)(C)C2)[nH]1` [Compound I-312], the IC50 in assay [1] is 1.3 nM; in assay [2], above 1000 nM; in assay [3] it was above 1000 nM; in assay [4], 1.3 nM.
As for `CC(C)c1cc(-c2ccc(F)cc2)nn2cc(C(=O)N3CCN(C(=O)C(C)(O)C(F)(F)F)CC3(C)C)nc12` (stereo not shown) [Compound I-313], the IC50 is 11.4 nM in assay [1], above 1000 nM in assay [2], above 1000 nM in assay [3] and 15.2 nM in assay [4].
For `CC(C)c1cc(-c2ccc(F)cc2)nn2cc(C(=O)N3CCN(C(=O)C(C)(N)C(F)(F)F)CC3(C)C)nc12` (stereo not shown) [Compound I-314], the IC50 was 7.6 nM in assay [1], above 1000 nM in assay [2], above 1000 nM in assay [3] and 10.4 nM in assay [4].
Turning to `CC(C)(C)c1cc(-c2ccc(F)cc2)nn2cc(C(=O)N3CCN(C(=O)C(C)(O)C(F)(F)F)CC3(C)C)nc12` (stereo not shown) [Compound I-317], the IC50 in assay [1] is 2.9 nM; in assay [2] it was above 1000 nM; in assay [3], above 1000 nM; in assay [4], 3.4 nM.
As to `CC(C)(C)c1cc(-c2ccc(F)cc2)nn2cc(C(=O)N3CCN(C(=O)C(C)(N)C(F)(F)F)CC3(C)C)nc12` (stereo not shown) [Compound I-318], the IC50 in assay [1] was 2.2 nM; in assay [2] it was above 1000 nM; in assay [3] it was above 1000 nM; in assay [4] it was 1.7 nM.
For `CC(C)(C)c1cc(-c2ccc(F)cc2)nn2cc(C(=O)N3CCN(C(=O)[C@H]4C[C@@](C)(O)C4)CC3(C)C)nc12` [Compound I-319], the IC50 in assay [1] came out at 0.6 nM; in assay [2], 950 nM; in assay [3], 760 nM; in assay [4] it was 0.4 nM.
